Assay: Human HepG2 cell viability assay in 384 well format
Type: toxicity, cell-based
Parameters: dose 125 nL, time 70.5 hour; cytotoxicity at 70.5 h: concentration not given beside the values
Settings: HepG2 cells, read-out: Inhibition

| SMILES | cytotoxicity at 70.5 h [%] |
| --- | --- |
| Cc1cnc(CC2COCCN(C(=O)c3cncs3)C2)cn1 (stereo unspecified) | -1.74 |
| COc1ccc2c(c1)CC(C1CCOCC1)N(C(=O)c1ccnn1C)C2 (stereo unspecified) | -0.842 |
| Cn1cccc1C(=O)N1CCCC1c1ccc(CN2CCOCC2)cn1 (stereo unspecified) | -1.35 |
| Cc1c(S(=O)(=O)N2CCCC2c2nnc(-c3ccsc3)o2)cnn1C (stereo unspecified) | 0.227 |
| O=C(c1cnc(C2CC2)nc1)N1CCCC(c2nccs2)C1 (stereo unspecified) | 27.6 |
| c1ccc(OCCN2CCC(c3cnccn3)CC2)cc1 | 3.59 |
| Cc1cc(C)c2nc(C)c(C(=O)N3CCC(N4CCCC4)CC3)cc2c1 | -0.523 |
| CN1CCOC(C)(C(=O)Nc2nc(C(C)(C)C)cs2)C1 (stereo unspecified) | 13.5 |
| c1cc(C2CCN(C3CCCCC3)C2)n[nH]1 (stereo unspecified) | 2 |
| Cc1cc(C)nc(C2(C)CCCN2CCO)n1 (stereo unspecified) | -0.984 |
| Cc1ccc(Nc2nccc(C3CN(CC(N)=O)C3)n2)nc1 | -1.76 |
| CC1(C(=O)N2CCOCC2)CN(Cc2ccccn2)CCO1 (stereo unspecified) | 26.2 |
| CCC(=O)N1CCCC(c2cc(Nc3ncccn3)nc(C)n2)C1 (stereo unspecified) | -5.83 |
| Cn1ccc2ccnc(CC3CN(C(=O)C4CCC(F)(F)CC4)C3)c21 | 3.02 |
| COc1ccc(CN(C)CC2(O)CCN(C(=O)c3cccn3C)C2)cc1 (stereo unspecified) | 36.1 |
| CNc1cc(C2CCCN2Cc2ccccc2OCC(=O)O)ccn1 (stereo unspecified) | -5.11 |
| CCn1cc(CN2CCc3nc(N4CCOCC4)nc(O)c3CC2)cn1 | 7.44 |
| Cc1noc2nc(C3CCN(Cc4ccncc4)CC3)cc(C(F)F)c12 | 31.7 |
| CN(C)C(=O)C1CN(Cc2c[nH]cn2)CCN(C2CCOCC2)C1 (stereo unspecified) | -0.471 |
| Cc1ccc(CC(=O)N(C)CC2(O)CCN(c3ccccn3)C2)s1 (stereo unspecified) | -6.87 |
| CC(=O)N1CCCC1c1cccc(Cc2ccccc2F)n1 (stereo unspecified) | 35.5 |
| CC(=O)Nc1nc(C2CCN(CC(N)=O)CC2)cs1 | -3.74 |
| Clc1ccc(CN2CCC3(CC2)CC(c2cccnc2)=NO3)cc1 | 3.85 |
| CN1CC(=O)N(c2ccccc2)Cc2c(NC3CC3)ncnc21 | 0.416 |
| Cc1ccc2nc(C3CCN(CC(C)C)CC3)nc(O)c2c1 | -6.3 |
| CC(C)C1=NOC2(CCN(C(=O)C3CCCC3)CC2)C1 | -11.9 |

| SMILES | cytotoxicity at 70.5 h [%] |
| --- | --- |
| COc1ccccc1-c1cc(C(=O)N(C)C)nc2c1cnn2C | -11.4 |
| NCCC(=O)N1CCC2(CC1)CN(C(=O)Cc1cccc(Cl)c1)CCO2 | -15.5 |
| NCC(=O)N1CCC2(CC1)CN(C(=O)Cc1ccc(Cl)cc1)CCO2 | -14.9 |
| O=C(C1CCCC1)N1CC2(CCCN(C3COC3)C2)Cc2ccccc21 (stereo unspecified) | -15.4 |
| O=C(C1CCCC1)N1CC2(CCN(C3COC3)C2)Cc2ccccc21 (stereo unspecified) | -10.8 |
| CC(C)(C)c1nnc2n1C(C(=O)N1CCN(c3ncccn3)CC1)CC2 (stereo unspecified) | -11.2 |
| CC(C)(C)c1nnc2n1C(C(=O)N1CCOCC1)CC2 (stereo unspecified) | -14.7 |
| CC(C)(C)c1nnc2n1C(C(=O)N1CCCC1)CC2 (stereo unspecified) | -12.7 |
| O=C(N1CCCC1)N1CCn2c(nnc2C2CCCN2)C1 (stereo unspecified) | -9.61 |
| O=C(Nc1ccccc1)N1CCn2c(nnc2C2CCCN2)C1 (stereo unspecified) | -9.71 |
| CC(C)NC(=O)c1cc(-c2ccc(S(C)(=O)=O)cc2)nc2c1cnn2C | -13.7 |
| Cc1cc(C(=O)NCC(F)(F)F)c2c(C3CCCN3)noc2n1 (stereo unspecified) | -7.21 |
| Cc1cc(C(=O)NCc2cccs2)c2c(C3CCCN3)noc2n1 (stereo unspecified) | -6.49 |
| O=C1CC2(CCN(C(=O)C3CCCCC3)C2)Nc2ccccc2N1 (stereo unspecified) | -9.46 |
| c1c[nH]c2nc(C3CCCNC3)nc-2c1 (stereo unspecified) | -13.7 |
| Cn1nc(C2CCCN2)c2c(C(=O)NCC(F)(F)F)cc(C3CC3)nc21 (stereo unspecified) | 17.1 |
| CN(C)C(=O)c1nc(-c2ccc(S(C)(=O)=O)cc2)c2cnccn12 | -6.88 |
| CS(=O)(=O)c1ccc(-c2nc(C(=O)N3CCCC3)n3ccccc23)cc1 | -8.24 |
| CN(C)C(=O)N1CCN(c2ccc(Cl)nn2)C(=O)C1 | -7.53 |
| O=C(N1CCOCC1)N1CCN(c2ccc(Cl)nn2)C(=O)C1 | -6.24 |
| CC(C)C(=O)N1Cc2ccccc2CC2(CCCCN2C)C1 (stereo unspecified) | -10.2 |
| C[C@H](C(=O)N1Cc2ccccc2CC2(CCCN2C)C1)c1ccccc1 (stereo partly specified) | -5.49 |
| CS(=O)(=O)N1CC2(CCCN(C3COC3)C2)Cc2ccccc21 (stereo unspecified) | -3.97 |
| CS(=O)(=O)N1CC2(CCN(C3COC3)C2)Cc2ccccc21 (stereo unspecified) | -4.95 |
| CS(=O)(=O)N1CC2(CCCN(CC3CC3)C2)Cc2ccccc21 (stereo unspecified) | -3.95 |
| O=C1Nc2ccccc2CN(CC2CC2)C12CCNC2 (stereo unspecified) | -3.48 |

| SMILES | cytotoxicity at 70.5 h [%] |
| --- | --- |
| O=C1NCc2ccccc2CC12CCN(Cc1ccncc1Cl)C2 (stereo unspecified) | -3.37 |
| O=C(c1ccc(Cl)s1)N1CCC2(COc3ncccc3S(=O)(=O)N2)C1 (stereo unspecified) | -8.51 |
| O=C(c1ccncc1)N1CCC2(COc3ncccc3S(=O)(=O)N2)C1 (stereo unspecified) | -5.87 |
| O=C(c1ccccn1)N1CCC2(COc3ncccc3S(=O)(=O)N2)C1 (stereo unspecified) | -5.57 |
| O=C(c1ccccn1)N1CCC2(CNS(=O)(=O)c3cnccc3O2)C1 (stereo unspecified) | 17.6 |
| CC(=O)N1CCCCC1c1nnc2n1CCNC2 (stereo unspecified) | 17.5 |
| CC(C)CCN1CCC2(CNS(=O)(=O)c3cccnc3O2)C1 (stereo unspecified) | 26.8 |
| O=S1(=O)NCC2(CCN(Cc3ccc(Cl)s3)C2)Oc2ncccc21 (stereo unspecified) | 17.2 |
| O=S1(=O)NCC2(CCN(Cc3ccncc3)CC2)Oc2ncccc21 | 23.1 |
| CC(C)NC(=O)C1CCc2nnc(CNC(=O)c3cccnc3)n21 (stereo unspecified) | -2 |
| N#Cc1ccc(SCCC(=O)Nc2ccc(CC(N)=O)cc2)cc1 | 6.57 |
| COC(=O)C1CN(Cc2cc(F)ccc2Br)CCO1 (stereo unspecified) | -3.09 |
| NC(=O)C(NC1CCN(CC2CCCCC2)CC1)c1ccc(F)cc1 (stereo unspecified) | -9.96 |
| N#Cc1ccc(SCCC(=O)NC(N)=O)cc1 | -12.4 |
| CSCCC(=O)N1CCN(CC(O)C(C)(C)C)CC1 (stereo unspecified) | 24.8 |
| CCCS(=O)(=O)CC(=O)Nc1ccsc1 | 7.39 |
| CS(=O)(=O)CCC(=O)Nc1ccsc1 | -14.4 |
| CCN(CC)S(=O)(=O)CC(=O)Nc1ccsc1 | -14.5 |
| CN1CCN(C(=O)C2(NC(N)=O)CCCCC2)Cc2ccccc21 | -7.76 |
| O=C(NC1CC1)c1cnc2n1CCCC2 | 6.87 |
| N#CCc1ccc(NC(=O)N[C@H](CO)Cc2ccc(O)cc2)cc1 | -9.07 |
| Cc1ccc(CNc2ccn(CCC(N)=O)n2)c(Br)c1 | 8.15 |
| COC(=O)[C@@H]1C[C@@H](O)CN1Cc1ccn(-c2ccc(F)cc2)n1 | -10.3 |
| CCC(C)(CC(=O)OC)NCc1c(C)noc1C (stereo unspecified) | -4.55 |
| CCc1ccc(C(=O)NC2CCCN(c3ccn(C)n3)C2=O)o1 (stereo unspecified) | 9.2 |
| CN(Cc1cc(Br)cn1C)C(=O)Cc1cccc(O)c1 | -3.37 |

| SMILES | cytotoxicity at 70.5 h [%] |
| --- | --- |
| COCCN1CCN(Cc2coc(-c3ccccc3Cl)n2)CC1 | -10.2 |
| CCN(CC(=O)NC)C(=O)c1sc(Cc2ccccc2)nc1C | -11.7 |
| CCn1ccnc1CN1CCN(C(C)C)CC1C (stereo unspecified) | -3.75 |
| CCC1CN(CCNS(C)(=O)=O)c2ccccc2O1 (stereo unspecified) | -2.49 |
| CCC1CN(CCCNS(C)(=O)=O)c2ccccc2O1 (stereo unspecified) | -4.06 |
| CNC(=O)NC(=O)C(C)N1CCN(C2CCCC2)CC1 (stereo unspecified) | -4.93 |
| Cc1cc(C(=O)N2CCN(C(=O)CCC3CCCCC3)CC2)n(C)n1 | -18.7 |
| O=C(CS(=O)(=O)Cc1ccc(Br)cc1F)Nc1cn[nH]c1 | 4.02 |
| Cc1ccc(F)cc1S(=O)(=O)NCc1cccc(CS(C)(=O)=O)c1 | -6.95 |
| O=C(Cn1cccn1)NCC1CCCN(Cc2ccccc2)C1 (stereo unspecified) | -20.2 |
| CCNC(=O)C(C)NC(=O)Nc1ccccc1Cl (stereo unspecified) | -6.58 |
| CS(=O)(=O)NC1CCN(C(=O)c2cc3ccccc3s2)C1 (stereo unspecified) | -22.9 |
| CCOC(=O)CN(CC(F)(F)F)C(=O)c1nc(C)n2ccccc12 | -15.3 |
| Cn1c(CCNC(=O)Nc2cn[nH]c2)nc2ccc(F)cc21 | -1.73 |
| CC(C)n1nccc1NC(=O)NCCc1nc2ccc(F)cc2n1C | -11 |
| Cc1ccc(C(=O)NCC(O)c2ccc(Cl)s2)c(=O)[nH]1 (stereo unspecified) | -23.1 |
| Cc1cc(C(=O)NCC(O)c2ccc(Cl)s2)c(C)o1 (stereo unspecified) | -10.3 |
| O=c1[nH]c(C2CCOC2)nc2ccc(Br)cc12 (stereo unspecified) | -2.39 |
| O=S(=O)(N1CCN(CC2CC2)CC1)N1CCCC1c1ccco1 (stereo unspecified) | -5.9 |
| Cc1nc(NC(=O)C2(C)CN(C)CCO2)sc1C (stereo unspecified) | -2.07 |
| Cc1nc(C2(O)CCCNCC2)sc1CCOc1ccc(Cl)cc1 (stereo unspecified) | 31.6 |
| c1ccc(CC2CCN(Cc3ccnc(-c4cccnc4)n3)CC2)cc1 | -3.3 |
| Cn1cc(CN2CCC(c3cc(COc4cccc(Cl)c4)[nH]n3)C2)cn1 (stereo unspecified) | -0.141 |
